Test results as given in ChEMBL document CHEMBL3745685, “An appraisal on recent medicinal perspective of curcumin degradant: Dehydrozingerone (DZG)” (Bioorg Med Chem, 2016).
Converted amounts (≈) assume the structure as drawn. Values belong to the molecule of their own block, whether it stands above or below them.

Key:
[1] = Antioxidant activity assessed as DPPH radical scavenging activity; type: physicochemical
[2] = Antioxidant activity assessed as DPPH radical scavenging activity incubated for 20 mins by spectrophotometry analysis; type: physicochemical
[3] = test system: Raji; experiment: Cytotoxicity against human Raji cells expressing EBV-EA assessed as inhibition of TPA-induced EBV-EA activation at 500 molar ratio after 48 hrs by trypan blue staining based immunofluorescence method relative to TPA; type: functional
[4] = Antioxidant activity assessed as ABTS free radical scavenging activity; type: physicochemical
[5] = test system: Raji; experiment: Cytotoxicity against human Raji cells expressing EBV-EA assessed as inhibition of TPA-induced EBV-EA activation after 48 hrs by trypan blue staining based immunofluorescence method relative to TPA; type: functional, cell-based
[6] = Antiproliferative activity against human U266 cells assessed as growth inhibition at 10 uM after 48 hrs by MTT assay relative to control; type: functional; conditions: U-266, 48 h, read-out: GI
[7] = Antiproliferative activity against human MM1S cells assessed as growth inhibition at 10 uM after 48 hrs by MTT assay relative to control; type: functional; conditions: MM1.S, read-out: GI
[8] = Antiproliferative activity against human RPMI8226 cells assessed as growth inhibition at 10 uM after 48 hrs by MTT assay relative to control; type: functional; conditions: RPMI-8226, 48 h, read-out: GI
[9] = test system: OVCAR-8; experiment: Resistance factor, ratio of IC50 for human multidrug resistant NCI/ADR-RES cells to IC50 for human OVCAR8 cells; type: functional
[10] = test system: Brain; experiment: Antioxidant activity in Wistar rat brain homogenate assessed as inhibition of Fe(II)-induced lipid peroxidation; type: functional, tissue-based
[11] = test system: Spilarctia obliqua; experiment: Insecticidal activity against third-instar larval stage of Spilosoma obliqua Walker assessed as growth inhibition after 24 hrs by leaf disc method; type: functional, organism-based
[12] = Potency index, ratio of alpha-tocopherol IC0.2 to compound IC0.2 for antioxidant activity by DPPH assay
[13] = test system: Mus musculus; experiment: Analgesic activity in albino mouse assessed as inhibition of acetic acid-induced writhing response at 1 mmol/kg relative to control; type: functional
[14] = test system: Rattus norvegicus; experiment: Antiinflammatory activity in rat assessed as inhibition of carrageenan-induced paw edema relative to control; type: functional
[15] = test system: Fusarium oxysporum; experiment: Fungicidal activity against Fusarium oxysporum MTCC 1755 after 5 to 7 days by agar well diffusion method; type: functional
[16] = test system: Fusarium oxysporum; experiment: Antifungal activity against Fusarium oxysporum MTCC 1755 assessed as growth inhibition after 5 to 7 days by broth dilution method; type: functional
[17] = test system: Rhizoctonia solani; experiment: Antifungal activity against Rhizoctonia solani Kuhn assessed as growth inhibition after 2 to 3 days by poisoned food method; type: functional, organism-based
[18] = test system: Aspergillus ochraceus; experiment: Fungicidal activity against Aspergillus ochraceus MTCC 4643 after 5 to 7 days by agar well diffusion method; type: functional
[19] = test system: Penicillium chrysogenum; experiment: Antifungal activity against Penicillium chrysogenum MTCC 616 assessed as growth inhibition after 5 to 7 days by broth dilution method; type: functional
[20] = test system: Penicillium chrysogenum; experiment: Fungicidal activity against Penicillium chrysogenum MTCC 616 after 5 to 7 days by agar well diffusion method; type: functional
[21] = test system: Aspergillus oryzae; experiment: Fungicidal activity against Aspergillus oryzae MTCC 262 after 5 to 7 days by agar well diffusion method; type: functional
[22] = test system: Aspergillus oryzae; experiment: Antifungal activity against Aspergillus oryzae MTCC 262 assessed as growth inhibition after 5 to 7 days by broth dilution method; type: functional
[23] = test system: Aspergillus ochraceus; experiment: Antifungal activity against Aspergillus ochraceus MTCC 4643 assessed as growth inhibition after 5 to 7 days by broth dilution method; type: functional
[24] = test system: Aspergillus niger; experiment: Antifungal activity against Aspergillus niger MTCC 218 assessed as growth inhibition after 5 to 7 days by broth dilution method; type: functional
[25] = test system: Aspergillus flavus; experiment: Fungicidal activity against Aspergillus flavus MTCC 277 after 5 to 7 days by agar well diffusion method; type: functional
[26] = test system: Aspergillus niger; experiment: Fungicidal activity against Aspergillus niger MTCC 218 after 5 to 7 days by agar well diffusion method; type: functional
[27] = test system: Aspergillus flavus; experiment: Antifungal activity against Aspergillus flavus MTCC 277 assessed as growth inhibition after 5 to 7 days by broth dilution method; type: functional
[28] = Potency index, ratio of ascorbic acid IC0.2 to compound IC0.2 for antioxidant activity by DPPH assay
[29] = test system: Raji; experiment: Cytotoxicity against human Raji cells expressing EBV-EA assessed as inhibition of TPA-induced EBV-EA activation at 38 molar ratio after 48 hrs by trypan blue staining based immunofluorescence method relative to TPA; type: functional
[30] = test system: Raji; experiment: Cytotoxicity against human Raji cells expressing EBV-EA assessed as inhibition of TPA-induced EBV-EA activation at 1000 molar ratio after 48 hrs by trypan blue staining based immunofluorescence method relative to TPA; type: functional
[31] = test system: Raji; experiment: Cytotoxicity against human Raji cells expressing EBV-EA assessed as inhibition of TPA-induced EBV-EA activation at 100 molar ratio after 48 hrs by trypan blue staining based immunofluorescence method relative to TPA; type: functional
[32] = Cytotoxicity against human OVCAR8 cells assessed as reduction in cell viability by MTT assay; type: functional, cell-based; conditions: OVCAR-8
[33] = test system: NCI/ADR-RES; experiment: Cytotoxicity against human multidrug resistant NCI/ADR-RES cells overexpressing P-gp assessed as reduction in cell viability by MTT assay; type: functional, cell-based
[34] = test system: Raji; experiment: Cytotoxicity against human Raji cells expressing EBV-EA assessed as inhibition of TPA-induced EBV-EA activation at 10 molar ratio after 48 hrs by trypan blue staining based immunofluorescence method relative to TPA; type: functional

IC0.2 [1]: 23.7 µM
Molecule: O=C1O[C@H]([C@@H](O)CO)C(O)=C1O [ASCORBIC ACID]

IC50 [2]: 40 mM
Molecule: COc1cc(/C=C/C(C)=O)ccc1OC(C)=O

Molecule: COc1cccc(/C=C/C(C)=O)c1OCC=C(C)C
inhibition (INH) [3]: 80%

Molecule: COc1cc(C(CC(C)=O)[Se]c2ccccc2)ccc1O (stereo not drawn)
IC50 [4]: 8 µM

IC50 [2]: 20 mM
Molecule: COc1ccc(/C=C/C(C)=O)cc1OC
IC50 [5]: 107 molar ratio

Molecule: COc1cc(/C=C/C(=O)/C=C/c2ccc3c(c2)C(=O)N(C2CCC(=O)NC2=O)C3=O)ccc1O (stereo not drawn)
inhibition of growth at 10 µM [6]: ≥ 90%
inhibition of growth at 10 µM [7]: ≥ 90%
inhibition of growth at 10 µM [8]: ≥ 90%

Molecule: COc1ccc(/C=C/C(=O)/C=C/c2nc3cc(O)ccc3n2C)cc1O
Ratio IC50 [9]: 1.4

IC50 [10]: 2.5 µM
IC0.2 [1]: 8.3 µM
Molecule: VITAMIN E

Molecule: CCCCC/C=C/C(=O)/C=C/c1ccc(O)c(OC)c1
EC50 [11]: 3550 µg/mL (≈ 12.9 mM)

IC50 ([10]; Rattus norvegicus, Wistar, Brain): 6.3 µM
IC0.2 [1]: 3.2 µM
Molecule: CC(=O)/C=C/c1cccc(O)c1O
Ratio [12]: 2

Molecule: COc1cc(/C=C/C(=O)CC(=O)C(C)c2ccc(CC(C)C)cc2)ccc1O (stereo not drawn)
inhibition in vivo at 1000 µmol/kg [13]: 59%
inhibition (INH) [14]: 76%

IC50 [4]: 8 µM
MIC [16]: 755 µM (≈ 145 µg/mL)
MIC [19]: 755 µM (≈ 145 µg/mL)
MIC [22]: 755 µM (≈ 145 µg/mL)
MIC [23]: 755 µM (≈ 145 µg/mL)
MIC [24]: 755 µM (≈ 145 µg/mL)
MIC [27]: 755 µM (≈ 145 µg/mL)
IC50 [2]: 0.3 mM
Molecule: COc1cc(/C=C/C(C)=O)ccc1O [DEHYDROZINGERONE]
MFC [15]: 880 µM (≈ 169 µg/mL)
EC50 [17]: 86.5 µg/mL (≈ 0.45 mM)
IC50 [5]: 95 molar ratio
MFC [18]: 880 µM (≈ 169 µg/mL)
MFC [20]: 880 µM (≈ 169 µg/mL)
MFC [21]: 880 µM (≈ 169 µg/mL)
MFC [25]: 880 µM (≈ 169 µg/mL)
MFC [26]: 880 µM (≈ 169 µg/mL)

Molecule: COc1ccc(/C=C/C(=O)/C=C/c2nc3cc(C)ccc3n2C)cc1O
Ratio IC50 [9]: 1.7

Molecule: CC(=O)C#Cc1ccccc1 [4-PHENYL-3-BUTYN-2-ONE]
IC50 [5]: 48 molar ratio

Molecule: COc1cc(/C=C/C(=O)C(=Cc2ccc3c(c2)C(=O)N(C2CCC(=O)NC2=O)C3=O)C(=O)/C=C/c2ccc(O)c(OC)c2)ccc1O (stereo not drawn)
inhibition of growth at 10 µM [6]: ≥ 90%
inhibition of growth at 10 µM [7]: ≥ 90%
inhibition of growth at 10 µM [8]: ≥ 90%

Molecule: COc1cc(/C=C/C(=O)CC(=O)/C=C/c2ccc(O)c(OC)c2)ccc1O [CURCUMIN]
IC50 [5]: 97 molar ratio

IC50 [4]: 6.5 µM
Molecule: COc1cc(C(CC(C)=O)Sc2ccccc2)ccc1O (stereo not drawn)

IC0.2 [1]: 4.9 µM
Molecule: CC(=O)/C=C/c1cc(O)ccc1O
Ratio [28]: 5

IC50 [2]: 0.26 mM
Molecule: Cc1c(C)c2c(c(C)c1O)CCC(C)(C(=O)O)O2 (stereo not drawn) [TROLOX]

Molecule: COc1cc(/C=C/C(=O)/C=C/c2nc3cc(C)ccc3n2C)ccc1O
Ratio IC50 [9]: 1.7

Molecule: C/C=C/c1ccc(O)c(OC)c1
inhibition (INH) [29]: 50%

Molecule: COc1cc(/C=C/C(C)=O)ccc1OCC=C(C)C
inhibition (INH) [30]: 100%

Molecule: COc1ccc(/C=C/C(C)=O)cc1OCC=C(C)C
inhibition (INH) [31]: 35%

IC50 [2]: 7.5 mM
Molecule: COc1cc(/C=C/C(C)=O)ccc1OC1OC(CO)C(O)C(O)C1O (stereo not drawn)

Molecule: CC(C)Cc1ccc(C(C)C(=O)O)cc1 (stereo not drawn) [IBUPROFEN]
inhibition in vivo at 1000 µmol/kg [13]: 69%
inhibition (INH) [14]: 73%

Molecule: CC(=O)CCc1ccccc1 [BENZYLACETONE]
IC50 [5]: 222 molar ratio

Molecule: COc1cc(/C=C/C(=O)/C=C/c2nc3c(C)cccc3n2C)ccc1O
IC50 [32]: 700 nM
IC50 [33]: 23.2 µM
Ratio IC50 [9]: 33.1

Molecule: COc1cccc(/C=C/C(C)=O)c1O
IC50 [5]: 50 molar ratio

IC50 [2]: 10 mM
Molecule: COc1cc(/C=C/C(C)=O)ccc1OC1OC(COC(C)=O)C(OC(C)=O)C(OC(C)=O)C1OC(C)=O (stereo not drawn)

Molecule: COc1ccc(/C=C/C(C)=O)c(OCC=C(C)C)c1
inhibition (INH) [34]: 11%
